Assay [1] addresses T1, complex of human CDK4 and cyclin D3 (Homo sapiens, UniProt P11802).
T1 construct: made in house; host or cells: insect cells, co-infected with baculovirus
Nature of the assay: Inhibition of CDK4/cyclin D retinoblastoma kinase activity (D-type cyclin is D3). The class given is biochemical. Particulars: superscript a: D-type cyclin is D3; apparent Ki; read-out: Ki CDK 4/D. The gist of the method:
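Radiometric assay: [32P]- or [33P]ATP phosphate incorporation into Rb substrate at 30°C for 20 min, stopped with EDTA, filter-captured and phosphorimaged.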

The test system of another assay is HCT116. Nature of the assay: Inhibition of cell growth, MTT assay, HCT116. The class given is cell-based, human. Conditions: Homo sapiens, HCT-116. Put shortly:
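Cells rested 4 h after plating, then exposed to graded compound concentrations in 0.5% (v/v) DMSO for four to six days (cell-type dependent) at 37° C, 5% CO2. Viability was read by MTT (0.2 mg/mL final, 4 h at 37° C), with DMSO-solubilized formazan measured at 540 nm.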

The next assay concerns SW-480. Nature of the assay: Inhibition of cell growth, MTT assay, SW-480. The class given is cell-based. Particulars: Homo sapiens, SW480; SW-480, MTT assay. Here is the method:
Inhibition of cell growth was measured using the tetrazolium salt assay, which is based on the ability of viable cells to reduce 3-(4,5-dimethylthiazol-2-yl)-2,5-[2H]-diphenyltetrazolium bromide (MTT) to formazan (Mossman, Journal of Immunological Methods, vol. 65 (1983), pp. 55-58). The water-insoluble purple formazan product was then detected spectrophotometrically. Various cell lines (HCT-116, Saos-2, U2-OS, SW480, COLO-205, RXF-393, M14, MDA-MB-468, and MCF7) were grown in 96-well plates. Cells were plated in the appropriate medium at a volume of 135 μl/well in either McCoy's 5A Medium (for Saos-2, U2-OS, SW480, and HCT-116 cells), RPMI (for COLO-205, RXF-393, M14 cells), or Minimum Essential Medium Eagle (for MDA-MB-468 and MCF7 cells). Plates were incubated for four hours before addition of inhibitor compounds. Different concentrations of inhibitor compounds were added in 0.5% (v/v) dimethylsulfoxide (15 μL/well), and cells were incubated at 37° C. (5% CO2) for four to six days (depending on cell type). At the end of the incubation, MTT was added to a final concentration of 0.2 mg/mL, and cells were incubated for 4 hours more at 37° C. After centrifugation of the plates and removal of medium, the absorbance of the formazan (solubilized in dimethylsulfoxide) was measured at 540 nm. […] All results were compared to control cells treated only with 0.5% (v/v) dimethylsulfoxide.
(Formazan colour is commonly taken as a measure of viable cells.)

The target in assay [2] is T2, complex of cyclin D1 and a fusion protein of human CDK4 and glutathione-S-transferase (GST-CDK4) (Homo sapiens, UniProt P11802).
T2 construct: made in house; host or cells: insect cells, co-infected with baculovirus
T2 sequence (P11802 whole entry, the tested form may be a part): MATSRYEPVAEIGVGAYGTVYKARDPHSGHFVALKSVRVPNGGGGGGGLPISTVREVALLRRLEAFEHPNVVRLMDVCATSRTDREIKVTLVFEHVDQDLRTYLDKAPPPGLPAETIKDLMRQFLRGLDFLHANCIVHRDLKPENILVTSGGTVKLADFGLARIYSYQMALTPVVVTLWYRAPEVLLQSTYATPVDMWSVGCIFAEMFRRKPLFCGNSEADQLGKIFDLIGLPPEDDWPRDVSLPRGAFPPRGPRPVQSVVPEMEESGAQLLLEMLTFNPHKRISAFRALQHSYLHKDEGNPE
T2 sequence (P24385 whole entry partner, the tested form may be a part): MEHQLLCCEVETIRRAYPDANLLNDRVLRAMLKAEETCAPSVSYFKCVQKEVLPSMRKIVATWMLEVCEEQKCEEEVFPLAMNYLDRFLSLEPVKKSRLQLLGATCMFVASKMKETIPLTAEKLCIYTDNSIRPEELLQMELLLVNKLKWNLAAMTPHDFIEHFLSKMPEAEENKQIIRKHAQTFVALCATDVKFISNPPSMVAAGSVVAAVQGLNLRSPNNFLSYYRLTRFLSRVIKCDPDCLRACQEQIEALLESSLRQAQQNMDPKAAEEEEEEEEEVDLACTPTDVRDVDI
Nature of the assay: Inhibition of CDK4/cyclin D retinoblastoma kinase activity (D-type cyclin is D1). Particulars: superscript b: D-type cyclin is D1; read-out: Ki CDK 4/D. The class given is biochemical. Here is the method:
Cyclin-dependent kinase activity was measured by quantifying the enzyme-catalyzed, time-dependent incorporation of radioactive phosphate from [^32P]ATP or [^33P]ATP into a protein substrate. Unless noted otherwise, assays were performed in 96-well plates in a total volume of 50 μL, in the presence of 10 mM HEPES (N-[2-hydroxyethyl]piperazine-N′-[2-ethanesulfonic acid]) (pH 7.4), 10 mM MgCl2, 25 μM adenosine triphosphate (ATP), 1 mg/mL ovalbumin, 5 μg/mL leupeptin, 1 mM dithiothreitol, 10 mM β-glycerophosphate, 0.1 mM sodium vanadate, 1 mM sodium fluoride, 2.5 mM ethylene glycol-bis(β-aminoethyl ether)-N,N,N′N′-tetraacetic acid (EGTA), 2% (v/v) dimethylsulfoxide, and 0.03-0.4 μCi [^32/33P]ATP per reaction. Reactions were initiated with enzyme, incubated at 30° C., and terminated after 20 minutes by the addition of ethylenediaminetetraacetic acid (EDTA) to 250 mM. The phosphorylated substrate was then captured on a nitrocellulose or phosphocellulose membrane using a 96-well filtration manifold, and unincorporated radioactivity was removed by repeated washing with 0.85% phosphoric acid. Radioactivity was quantified by exposing the dried membranes to a phosphorimager.
Apparent Ki values were measured by assaying enzyme activity in the presence of different inhibitor compound concentrations and subtracting the background radioactivity measured in the absence of enzyme. The kinetic parameters (kcat, Km for ATP) were measured for each enzyme under the usual assay conditions by determining the dependence of initial rates on ATP concentration. Inhibition data were fit to an equation for competitive inhibition using Kaleidagraph (Synergy Software), or were fit to an equation for competitive tight-binding inhibition using the software KineTic (BioKin, Ltd.).
A complex of human CDK4 and cyclin D3, or a complex of cyclin D1 and a fusion protein of human CDK4 and gluathione-S-transferase (GST-CDK4), or a complex of human CDK4 and genetically truncated (1-264) cyclin D3, was purified using traditional biochemical chromatographic techniques from insect cells that had been co-infected with the corresponding baculovirus expression vectors (see e.g., Meijer and Kim, “Chemical Inhibitors of Cyclin-Dependent Kinases,” Methods in Enzymol,. vol. 283 (1997), pp. 113-128.). The enzyme complex (5 or 50 nM) was assayed with 0.3-0.5 μg of purified recombinant retinoblastoma protein fragment (Rb) as a substrate. The engineered Rb fragment (residues 386-928 of the native retinoblastoma protein; 62.3 kDa) contains the majority of the phosphorylation sites found in the native 106-kDa protein, as well as a tag of six histidine residues for ease of purification. Phosphorylated Rb substrate was captured by microfiltration on a nitrocellulose membrane and quantified using a phosphorimager as described above. For measurement of tight-binding inhibitors, the enzyme complex concentration was lowered to 5 nM, and the assay duration was extended to 60 minutes, during which the time-dependence of product formation was linear.

A further assay concerns the target T3, CDK2/cyclin A (Homo sapiens, UniProt P24941).
T3 construct: made in house; host or cells: CDK2: insect cells (baculovirus); cyclin A: E. coli, then limited proteolysis
Nature of the assay: Inhibition of CDK2/cyclin A retinoblastoma kinase activity. The class given is biochemical. Particulars: read-out: Ki CDK 2/A. The gist of the method: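 Baculovirus-expressed CDK2 with excess proteolyzed cyclin A (or purified complex), 150 nM or 5 nM, phosphorylating an Rb fragment with 25 μM [32/33P]ATP, pH 7.4, 30° C, 20 min. Filter-captured radioactivity by phosphorimager; apparent Ki from fits to competitive or tight-binding competitive inhibition using measured ATP Km.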

T1 sequence (P11802 whole entry): as the sequence (P11802 whole entry, the tested form may be a part) above
T1 sequence (P30281 whole entry partner): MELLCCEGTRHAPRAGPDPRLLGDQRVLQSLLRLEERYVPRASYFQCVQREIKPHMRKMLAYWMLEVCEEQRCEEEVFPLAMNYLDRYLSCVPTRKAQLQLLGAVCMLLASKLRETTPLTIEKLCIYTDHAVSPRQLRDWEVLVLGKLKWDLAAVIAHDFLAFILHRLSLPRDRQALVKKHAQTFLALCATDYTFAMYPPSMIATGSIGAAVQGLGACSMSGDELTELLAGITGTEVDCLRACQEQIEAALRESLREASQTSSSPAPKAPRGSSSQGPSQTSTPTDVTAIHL

As a reminder, the IC50 is the midpoint of a concentration-inhibition curve. Lower therefore signals higher potency. By IC90 is commonly meant the point of the concentration-response curve where the effect stands at 90%. A higher IC90 goes with a need for much substance. `Nc1nc(Nc2ccccc2)sc1C(=O)c1cccc([N+](=O)[O-])c1` [A(1), (4-Amino-2-phenylamino-thiazol-5-yl)-(3-nitrophenyl)-methanone]: the Ki in assay [1] is 660 nM; in assay [2], 770 nM; on CDK2/cyclin A it was 1200 nM. For the same compound, the values for the IC50 in the assay on HCT116 and in the assay on SW-480 were 2500 nM and 4000 nM, respectively. The IC90 is 10000 nM in the assay on HCT116 and 9000 nM in the assay with SW-480.

The record behind these values is patent US6569878B1, “Substituted 4-amino-thiazol-2-yl compounds as cyclin-dependent kinase inhibitors” (Agouron Pharmaceuticals Inc., priority 1997, dated 2003).
